Measured values reported in US6572896B1, “Methods for inhibiting cell motility” (A.T. Still University of Health Sciences, priority 1998, dated 2003).
Where “and” joins values, the source holds several entries; their conditions need not be identical. Identical values can stand only once. Like-named read-outs stand apart in the source and are kept apart here. Marks after values point to notes of the source that are not given here.

Columns and labels:
B16F10 melanoma cells [1] = assay: Microscopic examination of cell morphology; type: cell-based; conditions: 4 hours
Description: Cell morphology was examined under conditions that were used in the motility assays. B16F10 melanoma cells were cultured directly on gelatin coated glass cover slips (0.1% gelatin for 2 hours and then air dried) for 24 hours under standard cell culture conditions. Culture media was then removed and the cells were washed twice with phosphate buffered saline (PBS) before being exposed to either 0.54 mM, 5.4 mM, or 54 mM K^+ in iso-osmotic saline solutions that were based on the electrolyte composition of RPMI-1640 media. Some solutions also contained GdCl3 or TbCl3 in a concentration of 20 μM. The cells were incubated at 5% CO2 and 37° C. for 4 hours before cells were photographed using an Olympus (IMT-2) inverted microscope.
In order to examine the effects of Gd^3+ and extracellular K^+ concentration on the morphology of the cells, B16F10 melanoma cells were grown under normal conditions on gelatin-coated glass coverslips. The cells were then washed twice with PBS and placed in solutions containing the following concentrations of K^+ and Gd^3+ for exposure periods of 4 hours: […]

B16F10 melanoma cells [2] = assay: Motility assay in blind-well migration chambers with gelatin-coated filter; type: cell-based; conditions: for Motility with Verapamil (mean number of cells per filter): n = 2 filters
[3] = test system: A2058 human melanoma cells; conditions: cited from earlier work
B16F10 cells [4] = assay: Cell growth after 12 hour Gd^3+ exposure and washout; type: cell-based; conditions: Gd^3+ 20 μM in RPMI-E2 12 hours, washed, then growth medium without Gd^3+
Description: The potential long term effects of Gd^3+ on cell growth were determined. […] The cell growth was observed after the Gd^3+ was washed from the cells.

B16F10 cells [5] = assay: Trypan blue exclusion assay (cell viability)
Description: A test was run to determine the toxicity of Gd^3+ on cells when exposed for seven hours. B16F10 cells were incubated for 12 hours with Gd^3+ at a concentration of 20 μM in the RPMI-E2 solution. A different batch of B16F10 cells were incubated for 12 hours without Gd^3+ in the RPMI-E2 solution. The cells were then examined with a Trypan blue exclusion assay.

[6] = test system: voltage-gated channels that control quantal neurotransmitter release; conditions: Gd^3+ up to 100 μM; cited from earlier work
[7] = Gd^3+ 20 μM in RPMI-E2, 12 hours
[8] = GdCl3 20 μM, RPMI-E2, normal K^+ and Ca^2+, seven hours, two independent runs

[Cl][Tb]([Cl])[Cl] [Tb^3+, TbCl3]
cell morphology (B16F10 melanoma cells [1]; 20 μM in bathing solution): the cells had flattened and spread further

[K+] [K^+]
Motility (mean number of cells per filter) (B16F10 melanoma cells [2]; K^+ 0.54 mM, absence of Gd): 1387 ± 103^b cells per filter
Motility (mean number of cells per filter) (B16F10 melanoma cells [2]; K^+ 2.75 mM, absence of Gd): 1164 ± 1006 cells per filter
Motility (mean number of cells per filter) (B16F10 melanoma cells [2]; K^+ 3.87 mM, absence of Gd): 591 ± 40 cells per filter
Motility (mean number of cells per filter) (B16F10 melanoma cells [2]; K^+ 5.4 mM (normal, RPMI-E2), absence of Gd): 475 ± 20 cells per filter
Motility (mean number of cells per filter) (B16F10 melanoma cells [2]; K^+ 10.0 mM, absence of Gd): 578 ± 15 cells per filter
Motility (mean number of cells per filter) (B16F10 melanoma cells [2]; K^+ 16.25 mM, absence of Gd): 494 ± 49 cells per filter
Motility (mean number of cells per filter) (B16F10 melanoma cells [2]; K^+ 22.0 mM, absence of Gd): 558 ± 25 cells per filter
Motility (mean number of cells per filter) (B16F10 melanoma cells [2]; K^+ 27.5 mM, absence of Gd): 471 ± 57 cells per filter
Motility (mean number of cells per filter) (B16F10 melanoma cells [2]; K^+ 35.0 mM, absence of Gd): 646 ± 65 cells per filter
Motility (mean number of cells per filter) (B16F10 melanoma cells [2]; K^+ 54.0 mM, absence of Gd): 1188 ± 50 cells per filter
cell morphology (B16F10 melanoma cells [1]; high K^+ (54 mM), no Gd^3+): rounder and exhibited pseudopodia that appeared blunted
cell morphology (B16F10 melanoma cells [1]; low K^+ (0.54 mM), no Gd^3+): slightly more cells were observed with distinct lamellipodia

[Cl-].[Cl-].[Co+2] [CoCl2]
inhibition of tumor cell motility [3]: completely ineffective
inhibition of cell motility (B16F10 melanoma cells [2]): approximately 87%
Motility (mean number of cells per filter) (B16F10 melanoma cells [2]; 2 mM): 43 ± 4 cells per filter

[Ca+2] [Ca^2+]
increase in the motility of the cells (B16F10 melanoma cells [2]; elevated Ca^2+ (4 mM) vs normal (0.4 mM)): ~20%
Motility (mean number of cells per filter) (B16F10 melanoma cells [2]; extracellular Ca^2+ 0.4 mM (RPMI-E, normal), no bFGF): 78 ± 4^b cells per filter
Motility (mean number of cells per filter) (B16F10 melanoma cells [2]; extracellular Ca^2+ 4.0 mM (RPMI-E4Ca, elevated), no bFGF): 100 ± 6 cells per filter

bFGF: Basic fibroblast growth factor used to enhance motility
Motility (mean number of cells per filter) (B16F10 melanoma cells [2]; bFGF 25 ng/ml in serum free RPMI-1640 in top well): 180 ± 30 cells per filter
increase in the motility of melanoma cells (B16F10 melanoma cells [2]; bFGF 25 ng/ml in serum free RPMI-1640 vs no bFGF): three-fold increase

COc1ccc(CCN(C)CCCC(C#N)(c2ccc(OC)c(OC)c2)C(C)C)cc1OC (centres unmarked) [Verapamil, verapamil, reference compound]
Motility with Verapamil (mean number of cells per filter) (B16F10 melanoma cells [2]; verapamil 100 μM, 0.5 mM K^+): 1116 cells per filter
Motility with Verapamil (mean number of cells per filter) (B16F10 melanoma cells [2]; verapamil 100 μM, 5 mM K^+): 434^b cells per filter and 519 cells per filter
Motility with Verapamil (mean number of cells per filter) (B16F10 melanoma cells [2]; verapamil 100 μM, 50 mM K^+): 1100 cells per filter
effect on motility (B16F10 melanoma cells [2]; verapamil 100 μM, control, high K^+ and low K^+ conditions): did not reduce motility in a way corresponding to the reduction produced by Gd^3+ and Co^2+

[Cl][Gd]([Cl])[Cl] [GdCl3]
effect on cell growth after washout (B16F10 cells [4]): No obvious inhibitory effect on cell growth
cells stained blue (B16F10 cells [5]; [7]): Less than 1%
viability versus cells not treated (B16F10 cells [5]; [7]): no difference in viability
Trypan Blue exclusion of vacuolated cells (membrane integrity) (B16F10 cells [5]; after 20 μM Gd^3+, low K^+, 4 hours): vacuolated cells excluded dye
effect on voltage-gated channels [6]: no effect
Motility (mean number of cells per filter) (B16F10 melanoma cells [2]; Gd 20 μM, K^+ 0.54 mM (RPMI-E2 low K^+)): 240 ± 40^b cells per filter
Motility (mean number of cells per filter) (B16F10 melanoma cells [2]; Gd 20 μM, K^+ 54.0 mM (RPMI-E2 high K^+)): 113 ± 10 cells per filter
inhibition of cell motility (B16F10 melanoma cells [2]; GdCl3 20 μM, High Ca^2+ HEPES Ringer solution (Example 1)): 71%
Motility (mean number of cells per filter) (B16F10 melanoma cells [2]; GdCl3 20 μM, High Ca^2+ HEPES Ringer solution, 2 h preincubation + 5 h assay, bFGF): 95 ± 6 cells per filter
Motility (mean number of cells per filter) (B16F10 melanoma cells [2]; [8]): 33 ± 6 cells per filter and 50 ± 10 cells per filter
reduction of motility (B16F10 melanoma cells [2]; [8]): 73% and 75%
inhibition of cell motility (B16F10 melanoma cells [2]; Gd^3+ 20 μM, 0.54 mM K^+): 83%
inhibition of cell motility (B16F10 melanoma cells [2]; Gd^3+ 20 μM, 54 mM K^+): 90.5%
cell morphology (B16F10 melanoma cells [1]; 20 μM Gd^3+, low K^+ (0.54 mM)): rounded and flattened cells with prominent vacuoles
cell morphology (B16F10 melanoma cells [1]; 20 μM Gd^3+, normal K^+ (5.4 mM)): larger, rounded cells devoid of pseudopodia
cell morphology (B16F10 melanoma cells [1]; 20 μM in bathing solution): the cells had flattened and spread further
